This passage reports IC50 results from ChEMBL document CHEMBL1129209, “Molecular interactions of all possible regioisomers of synthetic myo-inositol phosphates with inositol 1,4,5-trisphosphate 3-kinase” (Bioorg Med Chem Lett, 1997).

A short description of this test: Inhibition of Inositol 1,4,5-trisphosphate 3-kinase (IP3K) from rat brain.
`O=P(O)(O)O[C@H]1[C@H](O)[C@@H](OP(=O)(O)O)[C@H](OP(=O)(O)O)[C@@H](OP(=O)(O)O)[C@H]1O` (stereo in doubt; form 1): half-maximal inhibition (IC50) required 42.1 µM.
Take `O=P(O)(O)O[C@@H]1[C@H](O)[C@H](O)[C@@H](OP(=O)(O)O)[C@H](OP(=O)(O)O)[C@H]1O` (stereo in doubt; form 2) [INS(1,4,5)P3]: 12.4 µM corresponded to half-maximal inhibition (IC50).
Compound `O=P(O)(O)O[C@H]1[C@H](O)[C@@H](OP(=O)(O)O)[C@H](OP(=O)(O)O)[C@@H](OP(=O)(O)O)[C@H]1O` (stereo in doubt; form 4) displayed an IC50 of 65.2 µM.
For `O=P(O)(O)O[C@@H]1[C@H](O)[C@H](O)[C@@H](OP(=O)(O)O)[C@H](OP(=O)(O)O)[C@H]1O` (stereo in doubt; form 1) [INS(1,4,5)P3] the value was 3.55 µM; for `O=P(O)(O)O[C@H]1[C@H](O)[C@@H](OP(=O)(O)O)[C@H](OP(=O)(O)O)[C@@H](OP(=O)(O)O)[C@H]1O` (stereo in doubt; form 3), 220 µM.
Compound `O=P(O)(O)O[C@H]1[C@H](O)[C@@H](OP(=O)(O)O)[C@H](OP(=O)(O)O)[C@@H](OP(=O)(O)O)[C@H]1O` (stereo in doubt; form 2) came in with a concentration for half-maximal inhibition (IC50) of 56.7 µM.

What is called IC50 is the midpoint of a concentration-inhibition curve. The low end stands for inhibition by little substance, the high end for a need for much substance.
